Test results taken from patent US7816325B2, “Secondary binding site of dipeptidyl peptidase IV (DP IV)” (OSI Pharmaceuticals, Inc., priority 2003, dated 2010).
Read-outs that look alike come from different tables or passages of the source. One block for each compound: values may come before it. Where a SMILES comes first, the peptide text is derived from it. [ ]: non-standard residue; d: D form. The star is where a group is joined. AMC = Cc1cc(=O)oc2cc(N*)ccc12

What was measured:
[1] = target: T1, recombinant human DP IV, wild type (Homo sapiens, UniProt P27487); assay: Ki in competition to standard substrate GP-4NA; type: biochemical; settings: rh wt DP IV, competition to GP-4NA
T1 construct: His6 (N); made in house; host or cells: Pichia pastoris X-33 (vector pPICαC, secreted into the medium)
T1 sequence (P27487 37-766): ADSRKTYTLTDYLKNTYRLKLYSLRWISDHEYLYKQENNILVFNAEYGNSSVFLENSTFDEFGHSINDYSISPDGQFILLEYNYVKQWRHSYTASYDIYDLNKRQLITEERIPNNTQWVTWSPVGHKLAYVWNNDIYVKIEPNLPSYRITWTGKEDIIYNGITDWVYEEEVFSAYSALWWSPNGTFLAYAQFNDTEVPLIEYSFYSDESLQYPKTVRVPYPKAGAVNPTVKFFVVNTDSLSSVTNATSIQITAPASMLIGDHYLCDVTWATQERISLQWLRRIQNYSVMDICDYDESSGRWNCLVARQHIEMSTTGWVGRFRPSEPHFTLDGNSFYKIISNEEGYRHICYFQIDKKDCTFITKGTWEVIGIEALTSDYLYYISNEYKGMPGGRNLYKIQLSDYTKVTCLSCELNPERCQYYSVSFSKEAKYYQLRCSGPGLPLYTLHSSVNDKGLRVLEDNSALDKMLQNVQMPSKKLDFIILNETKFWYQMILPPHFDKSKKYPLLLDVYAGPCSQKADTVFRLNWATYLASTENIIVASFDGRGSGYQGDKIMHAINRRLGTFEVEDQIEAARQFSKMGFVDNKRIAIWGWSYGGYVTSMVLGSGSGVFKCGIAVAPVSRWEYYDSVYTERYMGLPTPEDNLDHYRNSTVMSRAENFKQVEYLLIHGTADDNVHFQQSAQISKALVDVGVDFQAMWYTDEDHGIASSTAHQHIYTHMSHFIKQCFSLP
Experimental: (§1) In order to measure the inhibition constant Ki a photometric assay was used The peptides were measured as competitors of the standard substrate GP-4-Nitroanilide. Three different substrate concentrations (0.4 mM to 0.05 mM) were combined with 8 different competitor concentrations (0.5 mM to 2 μM). […] Experiments were carried out under standard conditions: 30° C. in pH 7.6 40 mM HEPES (Sigma-Aldrich) buffer. Nitroaniline production was monitored using a HTS 7000+ microplate reader (PerkinElmer, Überlingen, Germany).

[2] = DP IV-catalyzed truncation of peptides, half-life by MALDI-TOF MS; type: biochemical
Experimental: (§2) In particular, the capability of purified DP IV from human, from porcine kidney, of recombinant human DP IV and the DP IV activity of the human serum to truncate the peptides of the GRF family were analyzed.
(§3) 250 single laser-shot spectra were accumulated.

DP IV [3] = assay: DP IV-catalyzed hydrolysis, determination of Km; type: biochemical
DP IV [4] = assay: DP IV-catalyzed truncation of peptides, half-life by MALDI-TOF MS; type: biochemical; settings: for hydrolysis by DP IV: GIP-fragments of different chain lengths
Experimental: as §2, §3

[5] = target: T2, recombinant human DP IV, mutation R560A (Homo sapiens, UniProt P27487, R560A); assay: Ki in competition to standard substrate GP-4NA; type: biochemical; design: His6 (N); made in house; host or cells: Pichia pastoris X-33 (vector pPICαC, secreted); settings: mu 15 DP IV (R560A), competition to GP-4NA
T2 sequence (P27487 37-766 R560A): as the sequence (P27487 37-766) above, with R524A counted along it
Experimental: as §1

[6] = target: T3, recombinant human DP IV, mutation W629A (Homo sapiens, UniProt P27487, W629A); assay: Ki in competition to standard substrate GP-4NA; type: biochemical; design: His6 (N); made in house; host or cells: Pichia pastoris X-33 (vector pPICαC, secreted); settings: mu 16 DP IV (W629A), competition to GP-4NA
T3 sequence (P27487 37-766 W629A): as the sequence (P27487 37-766) above, with W593A counted along it
Experimental: as §1

[7] = target: T4, porcine kidney DP IV, wild type (Sus scrofa, UniProt P22411); assay: Ki in competition to standard substrate GP-4NA; type: biochemical; settings: p wt DP IV; competition to GP-4NA
T4 construct: the DP IV-protein was released from the membrane by an 18 h autolysis step at 30° C; from tissue; host or cells: porcine kidney cortex
T4 sequence (P22411 38-766 limits assumed): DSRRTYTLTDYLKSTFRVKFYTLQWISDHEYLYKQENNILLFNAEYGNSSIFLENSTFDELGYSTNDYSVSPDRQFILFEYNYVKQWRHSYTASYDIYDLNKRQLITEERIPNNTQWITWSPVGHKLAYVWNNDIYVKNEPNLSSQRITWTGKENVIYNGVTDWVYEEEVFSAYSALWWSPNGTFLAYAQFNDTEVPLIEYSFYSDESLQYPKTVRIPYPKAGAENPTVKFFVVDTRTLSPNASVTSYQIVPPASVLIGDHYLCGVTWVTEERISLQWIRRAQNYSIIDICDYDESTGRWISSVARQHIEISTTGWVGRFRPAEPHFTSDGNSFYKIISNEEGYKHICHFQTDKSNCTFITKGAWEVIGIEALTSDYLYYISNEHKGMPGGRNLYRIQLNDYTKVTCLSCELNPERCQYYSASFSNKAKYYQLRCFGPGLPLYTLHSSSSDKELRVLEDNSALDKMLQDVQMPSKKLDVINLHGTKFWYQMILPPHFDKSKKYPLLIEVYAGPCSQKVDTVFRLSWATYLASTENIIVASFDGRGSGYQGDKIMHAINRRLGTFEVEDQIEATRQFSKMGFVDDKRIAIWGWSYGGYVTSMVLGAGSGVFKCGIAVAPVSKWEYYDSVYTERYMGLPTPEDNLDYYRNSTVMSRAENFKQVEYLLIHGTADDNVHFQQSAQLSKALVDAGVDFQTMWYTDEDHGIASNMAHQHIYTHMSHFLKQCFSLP
Experimental: (§4) In order to measure the inhibition constant Ki a photometric assay was used The peptides were measured as competitors of the standard substrate GP-4-Nitroanilide. Three different substrate concentrations (0.4 mM to 0.05 mM) were combined with 8 different competitor concentrations (0.5 mM to 2 μM). The reaction was started by addition of 3.5 nM DP IV. Experiments were carried out under standard conditions: 30° C. in pH 7.6 40 mM HEPES (Sigma-Aldrich) buffer. Nitroaniline production was monitored using a HTS 7000+ microplate reader (PerkinElmer, Überlingen, Germany). The Ki-values were calculated via non-linear regression using the enzyme kinetic program Grafit 4.016 (Erithacus Ltd, UK).

[8] = target: T1, recombinant human DP IV, wild type; assay: Kinetic characterization of substrate hydrolysis (Km, kcat); type: biochemical; settings: rh wt DP IV
[9] = target: T4, porcine kidney DP IV, wild type; assay: Kinetic characterization of substrate hydrolysis (Km); type: biochemical; settings: p wt DP IV
[10] = target: T2, recombinant human DP IV, mutation R560A; assay: Kinetic characterization of substrate hydrolysis (Km, kcat); settings: mu 15 DP IV (R560A)
[11] = target: T3, recombinant human DP IV, mutation W629A; assay: as above; settings: mu 16 DP IV (W629A)
[12] = Stability in biological fluids (human serum or plasma)
DP IV [13] = assay: DP IV-catalyzed peptide truncation test with or without preincubation with effector peptide; type: biochemical; settings: for affinity of larger oligopeptides such as GIP, VIP, glucagon / binding and hydrolysis of small dipeptide substrates: DP IV preincubated with the peptide
Experimental: as §3
In order to investigate directly the influence of the test compounds TFTSDY, TFTDDY and H-Ser-D-Glu-Thr-Gly-D-Val-D-Lys-D-Val-OH on the DP IV-catalyzed peptide hydrolysis the MALDI-TOF assay was used.
As described before (determination of t1/2) DP IV and the test compounds were preincubated and the reaction was started by adding the enzyme/hexapeptide mixture to substrate/buffer mix. The control reaction mixture consisted of buffer, enzyme and substrate. From the curves of the first order exponential the initial rate (vi) for the control and the reversible inhibited reaction was calculated.

DP IV [14] = assay: Photometric Ki assay, competition with standard substrate GP-4-Nitroanilide; type: biochemical; settings: read-out: Ki, influence on GP-4-Nitroanilide hydrolysis
Experimental: as §4
For a reversible competitive inhibition is to assumed: […]

[15] = preincubation with 160 μM TFTSDY

- Ki ([1]; read-out: Ki): 35.1 nM
Compound: C[C@H](NC(=O)[C@@H](N)Cc1ccc(O)cc1)C(=O)N[C@@H](CCC(=O)O)C(=O)N[C@@H](CO)C(=O)N[C@H](C(=O)N[C@@H](Cc1ccccc1)C(N)=O)[C@@H](C)O [YAESTF amide] (H-YAESTF-NH2; N-terminus assumed)

- half-life ([2]; bioactive peptides which are substrates for DP IV, read-out: Truncation half life): < 0.125 h
Compound: C[C@H](NC(=O)[C@@H](N)Cc1ccc(O)cc1)C(=O)N[C@@H](CCC(=O)O)C(=O)NCC(=O)N[C@H](C(=O)N[C@@H](Cc1ccccc1)C(=O)O)[C@@H](C)O [GIP1-6, YAEGTF] (H-YAEGTF-OH; N-terminus and C-terminus assumed)

- Km (DP IV [3]): 410 µM
Compound: Cc1cc(=O)oc2cc(NC(=O)CNC(=O)[C@@H](N)Cc3c[nH]cn3)ccc12 [His-Gly-AMC] (H-His-Gly-{AMC})

Compound: C[C@@H](O)[C@H](NC(=O)CNC(=O)[C@H](CCC(=O)O)NC(=O)[C@H](CO)NC(=O)[C@@H](N)Cc1ccc(O)cc1)C(=O)N[C@@H](Cc1ccccc1)C(=O)O [S^2GIP1-6] (H-YSEGTF-OH; N-terminus and C-terminus assumed)
- Ki [1]: no inhibition
- hydrolysis by DP IV (DP IV [4]): truncated
- half-life [2]: 1.32 h
- Ki [5]: no inhibition
- Ki [6]: no inhibition

- Ki ([1]; read-out: Ki): 65.8 nM
- Ki [7]: 72.9 nM
- Ki ([5]; read-out: Ki): 68.1 nM
- Ki ([6]; read-out: Ki): 65.7 nM
- Km [8]: 42.6 µM
- Km [9]: 59.8 µM
Compound: CC(C)C[C@H](N)C(=O)N1CCSC1 [Leu-Thia-Fum]

Compound: Glucagon
- Km (DP IV [3]): 3.8 µM

- Km [10]: 46.6 µM
- kcat [10]: 1e+06 s⁻¹
- Km [11]: 50.2 µM
- kcat [11]: 1.44e+06 s⁻¹
- Km [8]: 35.3 µM
- kcat [8]: 1.66e+06 s⁻¹
Compound: Cc1cc(=O)oc2cc(NC(=O)[C@@H]3CCCN3C(=O)CN)ccc12 [Gly-Pro-AMC, H-Gly-Pro-AMC] (H-Gly-Pro-{AMC})

Compound: C[C@@H](O)[C@H](N)C(=O)N[C@@H](Cc1ccccc1)C(=O)N[C@H](C(=O)N[C@@H](CC(=O)O)C(=O)N[C@@H](CC(=O)O)C(=O)N[C@@H](Cc1ccc(O)cc1)C(=O)O)[C@@H](C)O [TFTDDY] (H-TFTDDY-OH)
- stability in biological fluids [12]: instable

- Km (DP IV [3]): 68 µM
Compound: His^1-Ser^2-NPY: NPY analog, full-length substrate

- Km [10]: Not hydrolyzed
- Km [11]: Not hydrolyzed
- Km [8]: 440 µM
Compound: Cc1cc(=O)oc2cc(NC(=O)[C@H](CO)NC(=O)CN)ccc12 [Gly-Ser-AMC] (H-Gly-Ser-{AMC})

Compound: V^2GIP1-6: GIP-fragment analog (YAEGTF)
- Truncation half life (DP IV [4]): no degradation
- hydrolysis by DP IV (DP IV [4]): not hydrolyzed

Compound: [Gly]^2-glucagon: glucagon analog
- Km (DP IV [3]): 22 µM

Compound: G^2GIP1-6: GIP-fragment analog (YAEGTF)
- Truncation half life (DP IV [4]): no degradation
- hydrolysis by DP IV (DP IV [4]): not hydrolyzed

- Ki [1]: no inhibition
- Ki [5]: no inhibition
- Ki [6]: no inhibition
Compound: V^2GIP(1-4): GIP-fragment analog, test compound of Table 5 (YAEGTF)

- binding and hydrolysis of small dipeptide substrates (DP IV [13]): only slightly influenced
- stability in biological fluids [12]: not enzymatically degraded
Compound: CC(C)[C@@H](NC(=O)[C@@H](CCCCN)NC(=O)[C@H](NC(=O)CNC(=O)[C@@H](NC(=O)[C@@H](CCC(=O)O)NC(=O)[C@@H](N)CO)[C@@H](C)O)C(C)C)C(=O)O [H-Ser-D-Glu-Thr-Gly-D-Val-D-Lys-D-Val-OH] (H-S[dE]TG[dV][dK][dV]-OH)
- affinity of larger oligopeptides such as GIP, VIP, glucagon (DP IV [13]): considerably reduced
- improving the substrate specificity of DP IV (DP IV [13]; compared to control experiments without the heptapeptide): very effective

Compound: C[C@@H](O)[C@H](N)C(=O)N[C@@H](Cc1ccccc1)C(=O)N[C@H](C(=O)N[C@@H](CO)C(=O)N[C@@H](CC(=O)O)C(=O)N[C@@H](Cc1ccc(O)cc1)C(=O)O)[C@@H](C)O [TFTSDY] (H-TFTSDY-OH; N-terminus and C-terminus assumed)
- Ki [1]: no inhibition
- half-lifes of GIP, Glucagon, PACAP-27 and PACAP-38 (DP IV [13]; DP IV (porcine and recombinant human) catalyzed peptide truncation test, FIG. 16): prolongation
- affinity of larger oligopeptides such as GIP, VIP, glucagon (DP IV [13]): considerably reduced
- binding and hydrolysis of small dipeptide substrates (DP IV [13]): only slightly influenced
- half-lives of GIP and glucagon in presence of DP IV (DP IV [13]; [15]): prolonged
- incubation of Rantes1-15 and DP IV with or without the hexapeptide (DP IV [13]; [15]): No differences
- Ki [5]: no inhibition
- Ki [6]: no inhibition
- stability in biological fluids [12]: instable
- Ki (DP IV [14]): 710000 nM
